Columns and labels:
[1] = target: Fibroblast growth factor receptor 1 (Homo sapiens) (UniProt P11362); assay: Inhibition of human FGFR1 assessed as residual activity at 1 uM using PolyEY as substrate in presence of 33P-ATP by ProQinase assay relative to control
[2] = target: Homeodomain-interacting protein kinase 1 (Homo sapiens) (UniProt Q86Z02); assay: Inhibition of HIPK1 (unknown origin) assessed as remaining activity at 1 uM by Kinome scan method relative to control
[3] = target: Receptor-type tyrosine-protein kinase FLT3 (Homo sapiens) (UniProt P36888); assay: Inhibition of FLT3 (unknown origin) assessed as remaining activity at 1 uM by Kinome scan method relative to control
[4] = target: Ephrin type-B receptor 3 (Homo sapiens) (UniProt P54753); assay: Inhibition of EPHB3 (unknown origin) assessed as remaining activity at 1 uM by Kinome scan method relative to control
Sequence of Ephrin type-B receptor 3 (Homo sapiens) (P54753 whole entry): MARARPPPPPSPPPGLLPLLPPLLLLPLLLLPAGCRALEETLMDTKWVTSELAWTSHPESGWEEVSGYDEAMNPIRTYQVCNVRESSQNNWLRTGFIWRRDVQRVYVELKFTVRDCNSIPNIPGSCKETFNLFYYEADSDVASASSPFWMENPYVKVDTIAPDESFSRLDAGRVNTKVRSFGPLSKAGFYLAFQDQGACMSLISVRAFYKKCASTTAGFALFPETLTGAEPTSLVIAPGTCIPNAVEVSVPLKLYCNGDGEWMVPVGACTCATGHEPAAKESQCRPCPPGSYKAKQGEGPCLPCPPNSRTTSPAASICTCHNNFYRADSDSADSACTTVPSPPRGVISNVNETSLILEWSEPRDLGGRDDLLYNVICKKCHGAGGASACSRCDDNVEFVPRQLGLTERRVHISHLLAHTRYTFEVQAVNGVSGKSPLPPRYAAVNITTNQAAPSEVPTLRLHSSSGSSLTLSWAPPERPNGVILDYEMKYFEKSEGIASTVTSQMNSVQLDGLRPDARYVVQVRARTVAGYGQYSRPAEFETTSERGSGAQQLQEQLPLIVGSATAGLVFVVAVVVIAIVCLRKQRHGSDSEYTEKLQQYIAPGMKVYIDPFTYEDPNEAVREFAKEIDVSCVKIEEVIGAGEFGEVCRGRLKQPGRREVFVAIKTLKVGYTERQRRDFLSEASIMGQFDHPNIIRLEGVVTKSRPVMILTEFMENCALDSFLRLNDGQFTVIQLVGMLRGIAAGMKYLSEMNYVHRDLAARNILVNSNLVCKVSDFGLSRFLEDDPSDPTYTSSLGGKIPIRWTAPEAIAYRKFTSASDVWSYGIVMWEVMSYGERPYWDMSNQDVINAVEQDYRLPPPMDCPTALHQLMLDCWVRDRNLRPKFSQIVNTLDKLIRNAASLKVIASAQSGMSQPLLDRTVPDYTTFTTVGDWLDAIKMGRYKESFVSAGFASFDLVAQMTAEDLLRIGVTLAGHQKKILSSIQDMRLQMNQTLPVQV

[5] = target: Tyrosine-protein kinase Blk (Homo sapiens) (UniProt P51451); assay: Inhibition of human BLK assessed as residual activity at 1 uM using polyEY as substrate in presence of 33P-ATP by ProQinase assay relative to control
[6] = target: Receptor tyrosine-protein kinase erbB-2 (Homo sapiens) (UniProt P04626); assay: Inhibition of human ERBB2 assessed as residual activity at 1 uM using polyEY as substrate in presence of 33P-ATP by ProQinase assay relative to control
[7] = target: Mitogen-activated protein kinase 8 (Homo sapiens) (UniProt P45983); assay: Inhibition of human JNK1 assessed as residual activity at 1 uM using ATF2 as substrate in presence of 33P-ATP by ProQinase assay relative to control
Sequence of Mitogen-activated protein kinase 8 (Homo sapiens) (P45983 whole entry): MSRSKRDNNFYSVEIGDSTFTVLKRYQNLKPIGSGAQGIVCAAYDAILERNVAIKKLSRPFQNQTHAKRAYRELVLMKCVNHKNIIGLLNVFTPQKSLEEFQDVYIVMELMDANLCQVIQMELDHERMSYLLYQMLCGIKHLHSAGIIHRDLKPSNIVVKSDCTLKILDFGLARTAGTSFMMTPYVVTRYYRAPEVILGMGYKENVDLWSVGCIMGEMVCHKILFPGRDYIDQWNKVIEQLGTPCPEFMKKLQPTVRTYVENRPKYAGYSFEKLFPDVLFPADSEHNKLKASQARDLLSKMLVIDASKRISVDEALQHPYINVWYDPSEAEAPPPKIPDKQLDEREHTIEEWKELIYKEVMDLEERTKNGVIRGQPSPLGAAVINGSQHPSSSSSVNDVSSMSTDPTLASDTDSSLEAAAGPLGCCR

[8] = target: Tyrosine-protein kinase Mer (Homo sapiens) (UniProt Q12866); assay: Inhibition of human MERTK assessed as residual activity at 1 uM using polyEY as substrate in presence of 33P-ATP by ProQinase assay relative to control
Sequence of Tyrosine-protein kinase Mer (Homo sapiens) (Q12866 whole entry): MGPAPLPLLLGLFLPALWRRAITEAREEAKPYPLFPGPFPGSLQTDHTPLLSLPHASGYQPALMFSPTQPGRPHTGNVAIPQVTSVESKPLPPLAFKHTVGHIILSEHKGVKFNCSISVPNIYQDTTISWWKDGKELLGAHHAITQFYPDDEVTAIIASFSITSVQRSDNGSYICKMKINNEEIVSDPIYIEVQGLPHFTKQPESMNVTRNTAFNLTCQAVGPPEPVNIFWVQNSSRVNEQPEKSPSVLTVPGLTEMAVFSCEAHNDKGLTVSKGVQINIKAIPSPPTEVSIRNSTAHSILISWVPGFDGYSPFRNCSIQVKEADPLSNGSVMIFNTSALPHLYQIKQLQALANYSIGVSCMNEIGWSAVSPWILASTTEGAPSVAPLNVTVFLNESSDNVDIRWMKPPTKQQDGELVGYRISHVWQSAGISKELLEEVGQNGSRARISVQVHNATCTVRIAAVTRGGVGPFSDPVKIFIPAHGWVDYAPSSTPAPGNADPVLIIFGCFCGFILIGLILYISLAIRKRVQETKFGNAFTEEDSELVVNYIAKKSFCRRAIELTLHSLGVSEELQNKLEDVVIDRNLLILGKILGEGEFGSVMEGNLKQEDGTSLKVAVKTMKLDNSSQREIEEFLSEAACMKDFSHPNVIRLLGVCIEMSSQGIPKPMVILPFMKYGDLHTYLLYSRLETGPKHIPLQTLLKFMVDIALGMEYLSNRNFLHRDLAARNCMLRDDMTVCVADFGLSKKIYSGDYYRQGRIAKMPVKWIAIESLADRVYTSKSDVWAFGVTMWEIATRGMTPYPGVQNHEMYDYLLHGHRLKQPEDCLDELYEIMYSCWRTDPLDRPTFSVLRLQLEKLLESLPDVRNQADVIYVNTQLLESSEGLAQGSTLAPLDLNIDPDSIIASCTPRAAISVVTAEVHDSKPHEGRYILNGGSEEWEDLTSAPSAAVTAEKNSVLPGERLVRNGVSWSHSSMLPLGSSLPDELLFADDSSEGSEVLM

[9] = system: Mast/stem cell growth factor receptor Kit (Homo sapiens), P10721 [L576P]; assay: Inhibition of KIT L576P mutant (unknown origin) assessed as remaining activity at 1 uM by Kinome scan method relative to control
[10] = target: Serine/threonine-protein kinase PAK 2 (Homo sapiens) (UniProt Q13177); assay: Inhibition of human PAK2 assessed as residual activity at 1 uM using bio-4xCHKT as substrate in presence of 33P-ATP by ProQinase assay relative to control
Sequence of Serine/threonine-protein kinase PAK 2 (Homo sapiens) (Q13177 whole entry, the tested form may be a part): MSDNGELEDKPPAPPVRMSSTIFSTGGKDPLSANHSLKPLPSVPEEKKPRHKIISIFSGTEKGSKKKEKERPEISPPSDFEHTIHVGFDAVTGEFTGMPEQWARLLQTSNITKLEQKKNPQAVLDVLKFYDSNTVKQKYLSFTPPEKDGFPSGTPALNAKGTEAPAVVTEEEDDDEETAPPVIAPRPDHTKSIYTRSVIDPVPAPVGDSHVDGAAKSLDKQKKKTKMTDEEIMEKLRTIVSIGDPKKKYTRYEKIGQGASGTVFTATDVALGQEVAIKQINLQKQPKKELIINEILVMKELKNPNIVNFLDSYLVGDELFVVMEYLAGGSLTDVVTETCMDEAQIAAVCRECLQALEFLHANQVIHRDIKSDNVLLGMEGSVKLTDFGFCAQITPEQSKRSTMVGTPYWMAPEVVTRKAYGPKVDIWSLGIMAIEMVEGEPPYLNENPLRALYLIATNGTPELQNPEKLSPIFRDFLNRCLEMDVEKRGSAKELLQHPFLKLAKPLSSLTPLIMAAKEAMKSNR

[11] = target: Ribosomal protein S6 kinase alpha-6 (Homo sapiens) (UniProt Q9UK32); assay: Inhibition of N-terminal kinase domain RPS6KA6 (unknown origin) assessed as remaining activity at 1 uM by Kinome scan method relative to control
[12] = system: Phosphatidylinositol 4,5-bisphosphate 3-kinase catalytic subunit alpha isoform (Homo sapiens), P42336 [E545A]; assay: Inhibition of PIK3CA E545A mutant (unknown origin) assessed as remaining activity at 1 uM by Kinome scan method relative to control
[13] = target: Ribosomal protein S6 kinase alpha-5 (Homo sapiens) (UniProt O75582); assay: Inhibition of N-terminal kinase domain RPS6KA5 (unknown origin) assessed as remaining activity at 1 uM by Kinome scan method relative to control
[14] = target: Tyrosine-protein kinase Mer (Homo sapiens) (UniProt Q12866); assay: Inhibition of MERTK (unknown origin) assessed as remaining activity at 1 uM by Kinome scan method relative to control
[15] = target: G protein-coupled receptor kinase 4 (Homo sapiens) (UniProt P32298); assay: Inhibition of human GRK4 assessed as residual activity at 1 uM using casein as substrate in presence of 33P-ATP by ProQinase assay relative to control
[16] = target: MAP kinase-interacting serine/threonine-protein kinase 1 (Homo sapiens) (UniProt Q9BUB5); assay: Inhibition of human MKNK1 assessed as residual activity at 1 uM using RB-S6P as substrate in presence of 33P-ATP by ProQinase assay relative to control
[17] = target: RAC-alpha serine/threonine-protein kinase (Homo sapiens) (UniProt P31749); assay: Inhibition of AKT1 (unknown origin) assessed as remaining activity at 1 uM by Kinome scan method relative to control
Sequence of RAC-alpha serine/threonine-protein kinase (Homo sapiens) (P31749 whole entry): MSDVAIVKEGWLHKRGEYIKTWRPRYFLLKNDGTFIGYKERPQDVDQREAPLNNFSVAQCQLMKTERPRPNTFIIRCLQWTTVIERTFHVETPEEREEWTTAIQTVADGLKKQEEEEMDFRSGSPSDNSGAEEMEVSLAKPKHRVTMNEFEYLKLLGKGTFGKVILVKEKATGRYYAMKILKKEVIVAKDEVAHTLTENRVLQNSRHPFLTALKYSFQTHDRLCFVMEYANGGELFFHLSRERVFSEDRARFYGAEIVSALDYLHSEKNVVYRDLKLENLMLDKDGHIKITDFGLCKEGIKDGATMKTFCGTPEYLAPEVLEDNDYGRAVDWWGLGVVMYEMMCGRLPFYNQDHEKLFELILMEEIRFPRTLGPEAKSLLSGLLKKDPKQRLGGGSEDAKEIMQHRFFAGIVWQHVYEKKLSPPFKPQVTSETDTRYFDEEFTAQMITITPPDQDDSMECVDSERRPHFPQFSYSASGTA

[18] = target: T1, Serine/threonine-protein kinase Chk1 (Homo sapiens) (UniProt O14757); assay: Inhibition of human CHK1 assessed as residual activity at 1 uM using RBER-CHKtide as substrate in presence of 33P-ATP by ProQinase assay relative to control
T1 sequence (whole entry): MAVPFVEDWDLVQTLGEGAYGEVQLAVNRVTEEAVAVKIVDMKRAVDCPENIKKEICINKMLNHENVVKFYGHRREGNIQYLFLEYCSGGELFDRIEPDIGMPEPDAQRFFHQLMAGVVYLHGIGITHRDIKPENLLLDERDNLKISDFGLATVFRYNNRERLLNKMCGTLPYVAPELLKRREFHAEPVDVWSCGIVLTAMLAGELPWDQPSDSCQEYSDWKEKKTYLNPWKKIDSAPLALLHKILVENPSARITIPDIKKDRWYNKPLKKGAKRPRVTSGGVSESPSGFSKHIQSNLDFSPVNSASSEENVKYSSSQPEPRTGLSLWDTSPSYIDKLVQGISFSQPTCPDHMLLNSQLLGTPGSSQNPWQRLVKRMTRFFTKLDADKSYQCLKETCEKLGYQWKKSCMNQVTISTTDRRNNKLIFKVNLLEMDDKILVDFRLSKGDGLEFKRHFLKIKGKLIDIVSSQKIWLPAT

[19] = target: Vascular endothelial growth factor receptor 2 (Homo sapiens) (UniProt P35968); assay: Inhibition of human VEGFR2 assessed as residual activity at 1 uM using polyEY as substrate in presence of 33P-ATP by ProQinase assay relative to control
[20] = target: Dual specificity mitogen-activated protein kinase kinase 1 (Homo sapiens) (UniProt Q02750); assay: Inhibition of human MEK1 assessed as residual activity at 1 uM using ERK2-KR as substrate in presence of 33P-ATP by ProQinase assay relative to control
Sequence of Dual specificity mitogen-activated protein kinase kinase 1 (Homo sapiens) (Q02750 whole entry): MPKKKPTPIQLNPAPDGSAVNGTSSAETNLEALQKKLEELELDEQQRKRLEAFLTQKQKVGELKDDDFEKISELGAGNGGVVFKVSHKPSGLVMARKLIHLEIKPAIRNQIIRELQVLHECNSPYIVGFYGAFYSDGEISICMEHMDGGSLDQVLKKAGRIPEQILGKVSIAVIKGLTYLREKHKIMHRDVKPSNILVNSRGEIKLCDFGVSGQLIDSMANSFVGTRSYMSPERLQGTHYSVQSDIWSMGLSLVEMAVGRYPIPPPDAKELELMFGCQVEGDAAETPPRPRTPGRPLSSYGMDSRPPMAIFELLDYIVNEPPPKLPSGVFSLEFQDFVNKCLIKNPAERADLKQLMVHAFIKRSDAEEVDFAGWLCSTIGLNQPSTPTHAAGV

[21] = system: Hepatocyte growth factor receptor (Homo sapiens), P08581 [Y1230C]; assay: Inhibition of human MET Y1230C mutant assessed as residual activity at 1 uM using poly(Ala,Glu,Lys,Tyr)6:2:5:1 as substrate in presence of 33P-ATP by ProQinase assay relative to control
[22] = target: RAC-alpha serine/threonine-protein kinase (Homo sapiens) (UniProt P31749); assay: Inhibition of human AKT1 assessed as residual activity at 1 uM using RBER-GSK3(14-27) as substrate in presence of 33P-ATP by ProQinase assay relative to control
[23] = Anti-inflammatory activity against human derived medium respond PBMC cells assessed as inhibition in stimulated MCP-1 chemokine release incubated for 2 hrs in the presence of LPS/SEB/aCD28 by Luminex based sandwich immunoassay; assay type: functional, cell-based
[24] = system: Receptor-type tyrosine-protein kinase FLT3 (Homo sapiens), P36888 [UNDEFINED MUTATION]; assay: Inhibition of FLT3 ITD mutant (unknown origin) assessed as remaining activity at 1 uM by Kinome scan method relative to control

Sequence of Homeodomain-interacting protein kinase 1 (Homo sapiens) (Q86Z02 whole entry, looked up): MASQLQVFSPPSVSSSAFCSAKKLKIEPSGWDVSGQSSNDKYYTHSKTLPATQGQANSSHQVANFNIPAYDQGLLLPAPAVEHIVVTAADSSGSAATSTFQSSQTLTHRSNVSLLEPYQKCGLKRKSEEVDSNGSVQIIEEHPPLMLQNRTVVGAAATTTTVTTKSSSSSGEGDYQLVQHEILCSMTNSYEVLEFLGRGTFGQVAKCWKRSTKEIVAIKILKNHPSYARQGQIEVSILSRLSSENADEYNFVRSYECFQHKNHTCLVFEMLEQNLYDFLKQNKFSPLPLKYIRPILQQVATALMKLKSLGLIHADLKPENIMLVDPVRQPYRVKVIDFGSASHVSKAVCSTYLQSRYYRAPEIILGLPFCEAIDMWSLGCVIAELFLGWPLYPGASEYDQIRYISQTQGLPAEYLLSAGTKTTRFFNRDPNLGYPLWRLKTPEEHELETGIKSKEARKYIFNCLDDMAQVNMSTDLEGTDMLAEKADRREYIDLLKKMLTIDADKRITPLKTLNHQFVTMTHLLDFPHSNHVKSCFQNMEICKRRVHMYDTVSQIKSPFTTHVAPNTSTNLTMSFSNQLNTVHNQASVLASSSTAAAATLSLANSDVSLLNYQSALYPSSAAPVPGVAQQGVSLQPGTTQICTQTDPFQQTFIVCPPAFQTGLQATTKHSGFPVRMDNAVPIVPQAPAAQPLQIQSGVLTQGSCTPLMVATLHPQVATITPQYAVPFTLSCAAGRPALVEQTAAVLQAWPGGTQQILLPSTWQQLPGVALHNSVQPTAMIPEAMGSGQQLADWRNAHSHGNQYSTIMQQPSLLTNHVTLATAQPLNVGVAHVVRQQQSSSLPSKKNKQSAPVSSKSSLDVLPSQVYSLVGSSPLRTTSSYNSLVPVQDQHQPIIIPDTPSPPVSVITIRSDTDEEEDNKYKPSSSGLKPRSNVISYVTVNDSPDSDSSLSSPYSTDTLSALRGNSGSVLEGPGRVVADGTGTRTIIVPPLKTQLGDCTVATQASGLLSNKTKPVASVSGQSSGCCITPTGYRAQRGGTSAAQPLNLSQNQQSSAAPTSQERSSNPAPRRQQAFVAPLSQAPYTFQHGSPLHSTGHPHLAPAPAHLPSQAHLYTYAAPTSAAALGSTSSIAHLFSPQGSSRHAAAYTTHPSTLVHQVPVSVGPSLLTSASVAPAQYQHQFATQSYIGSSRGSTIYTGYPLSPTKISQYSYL

**Q.** What does the source list for O=C1c2ccc(Nc3ccc(F)cc3F)cc2CCc2ccc(OC[C@H](O)CO)cc21 [Skepinone-L]?
**A.** Activity [1]: 117%; Activity [2]: 100%; Activity [3]: 97%; Activity [4]: 100%; Activity [5]: 107%; Activity [6]: 91%; Activity [7]: 98%; Activity [8]: 98%; Activity [9]: 98%; Activity [10]: 83%; Activity [11]: 90%; Activity [12]: 100%; Activity [13]: 95%; Activity [14]: 92%; Activity [15]: 100%; Activity [16]: 69%; Activity [17]: 100%; Activity [18]: 94%; Activity [19]: 91%; Activity [20]: 79%; Activity [21]: 97%; Activity [22]: 102%; IC50 [23]: 90 nM; Activity [24]: 96%

Reference: ChEMBL document CHEMBL5696441 (Nat Chem Biol, 2011)
